The test system of one test is C. reinhardtii. The test is described as follows: Growth inhibition of C. reinhardtii by hydrazones and isolated metal-hydrazone complexes, TAP Cu minus medium (Example 12). The conditions noted are these: for inhibition of growth at 1 µg/mL: Chlamydomonas reinhardtii, parent hydrazone 1 μg/mL, read-out: Hydrazone % Inhn.; for Complex % Inhn.: isolated metal complex 1 μg/mL. The test is classed as cell-based, Chlamydomonas reinhardtii. On the procedure: In vitro toxicity assays against C. reinhardtii CC-1928 (wild type mt+137c green in dark subclone) obtained from the Chlamydomonas Resource Center at Duke University were conducted using TAP liquid growth medium described by Gorman and Levine Proc. Natl. Acad. Sci. USA 1965, 54, 1665-1669 except that CuSO4.5H2O, normally included as a component of Hutner's trace element stock solution (Hutner et al. Proc. Am. Philos. Soc. 1950, 94, 152-170), was omitted. The TAP medium lacking Cu (TAP Cu minus) was prepared by adding 400 mg NH4Cl, 10 mL of 100× Tris-Acetate (242 g Tris-base and 100 mL glacial acetic acid in 1000 mL milli Q water), and 8.3 mL of 120.5× phosphate buffer (14.34 g K2HPO4 and 7.26 g KH2PO4 in 1000 mL milli Q water) to milli Q water to make a total volume of 1 liter. The medium was treated with 0.5 g Chelex 100 resin (Bio-Rad Analytical grade, 50-100 mesh, sodium form, cat#142-2822) by stirring at room temperature for 1 hour. 900 mL were decanted and 45.9 mg of CaCl2.2H2O, 90 mg of MgSO4.7H2O and 0.9 mL Hutner's trace elements lacking CuSO4.5H2O were added and the solution was filter-sterilized. Medium containing copper (TAP Cu plus) was prepared by adding CuCl2.2H2O to the TAP Cu minus medium at 20 μM. Test compounds were dissolved in dimethylsulfoxide (DMSO) at 2 mg/mL then dilutions in TAP Cu minus and TAP Cu plus media were prepared in sterilized microcentrifuge tubes at 2 μg/mL. 100 μL aliquots of diluted compound were dispensed into flat-bottomed 96-well microtiter plates. C. reinhardtii was maintained under 12 h of light on TAP agar plates at 18° C. A loopful of cells was added to 50 mL of TAP Cu minus medium and the culture incubated with shaking at 200 rpm at 27° C. for 24 h. The culture (10 to 20 mL aliquot) was centrifuged in a bench centrifuge at 2000 rpm for 2 min. The resulting cell pellet was resuspended in 5 mL sterile milli Q water (which had been treated with Chelex 100 resin using 0.5 g resin per liter of water by stirring at room temperature for 1 h), and recentrifuged. The cells were resuspended in TAP Cu minus medium, and the suspension adjusted to 2×10^5 spores per mL. Microtiter plates containing compounds as described above were inoculated with 100 μL of this cell suspension and the plates incubated at 27° C. for 48 h before assessing algal growth by measuring light scattering in a NepheloStar plate-reader. Growth inhibition was determined by comparing growth in the presence of test compound with growth in control wells lacking test compound. Hydrazones and their isolated metal complexes were compared with respect to their in vitro activity toward C. reinhardtii and the cyanobacterium (blue-green alga) Synechocystis sp. strain 6803. Metal complexes of hydrazones were prepared by precipitation from ethanol with various metal salts at 1:1, 2:1 or 3:1 molar ratios, as described in general by Ainscough, Brodie, Dobbs, Ranford, and Waters (Inorganica Chimica Acta 1998, 267, 27-38, which is expressly incorporated by reference herein). In vitro assays against C. reinhardtii were conducted as described in Example 10 using TAP Cu minus medium. Growth inhibition was determined by comparing growth in the presence of test compound with growth in control wells lacking test compound. Results for growth inhibition of C. reinhardtii by hydrazones and corresponding isolated metal complexes (each at 1 μg/mL) are shown in Table 6.

The test system of another test is C. reinhardtii CC-1928. Nature of the test: Effect of copper on activity of hydrazones: in vitro growth inhibition of C. reinhardtii in TAP Cu minus / TAP Cu plus medium (Example 10). The test is classed as cell-based, Chlamydomonas reinhardtii. The conditions noted are these: for inhibition of growth at 1 µg/mL: Chlamydomonas reinhardtii, TAP Cu minus medium, read-out: % Inhn. Minus Copper Observed; for inhibition of growth at 1 µg/mL / % Inhn. Plus Copper Observed: test compound 1 μg/mL, 48 h; for % Inhn. Plus Copper Observed: TAP Cu plus medium (CuCl2); for % Inhn. by copper chloride alone: CuCl2, 10 μM, TAP Cu plus vs TAP Cu minus without test compound, across experiments. An outline of the steps:
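Washed cells (suspension 2×10^5 spores per mL) added to compound at 1 μg/mL in Chelex-treated TAP Cu minus or TAP Cu plus (20 μM CuCl2). After 48 h at 27 °C, growth read by light scattering; % inhibition vs compound-free wells, plus-Cu predicted values by Colby formula from minus-Cu data.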

`O=C(N/N=C/c1cc(Cl)cc(Cl)c1O)c1ccccc1` [Compound 1]: the inhibition of growth at 1 µg/mL in the test with C. reinhardtii was 16%. Besides, in the test with C. reinhardtii CC-1928, the inhibition of growth at 1 µg/mL stood at 16% and the “% Inhn. Plus Copper Observed” value is 96%.

`C/C(=N\NC(=O)c1ccccc1)c1cc(Cl)cc(Cl)c1O` [Compound 6]: the inhibition of growth at 1 µg/mL in the test on C. reinhardtii turned out to be 13%. In the test on C. reinhardtii CC-1928, the inhibition of growth at 1 µg/mL stood at 13% and the “% Inhn. Plus Copper Observed” value was 98%.

Regarding `O=C(N/N=C/c1cc(Cl)cc(Cl)c1O)c1ccccc1O` [Compound 7], the inhibition of growth at 1 µg/mL with C. reinhardtii was found to be 29%. In the test on C. reinhardtii CC-1928, the inhibition of growth at 1 µg/mL came to 29% and the “% Inhn. Plus Copper Observed” value is reported as 94%.

In the case of `C/C(=N\NC(=O)c1ccc(Cl)cc1)c1cc(Cl)cc(Cl)c1O` [Compound 12], the inhibition of growth at 1 µg/mL in the test on C. reinhardtii worked out at 4%. Moreover, in the test on C. reinhardtii CC-1928, the inhibition of growth at 1 µg/mL came out at 4% and the “% Inhn. Plus Copper Observed” value stood at 96%.

Turning to `O=C(N/N=C/c1cc(Cl)cc(Br)c1O)c1ccccc1` [Compound 14], the inhibition of growth at 1 µg/mL in the test on C. reinhardtii was determined as 6%. Besides, in the test on C. reinhardtii CC-1928, the inhibition of growth at 1 µg/mL is 6% and the “% Inhn. Plus Copper Observed” value is 97%.

`O=C(N/N=C/c1cc(Cl)cc(Br)c1O)c1ccc(Cl)cc1` [Compound 15]: the inhibition of growth at 1 µg/mL in the test with C. reinhardtii was determined as 11%. Further, in the test with C. reinhardtii CC-1928, the inhibition of growth at 1 µg/mL came out at 11% and the “% Inhn. Plus Copper Observed” value turned out to be 97%.

`O=C(N/N=C/c1cc(Cl)cc(Br)c1O)c1ccccc1O` [Compound 18]: the inhibition of growth at 1 µg/mL in the test on C. reinhardtii turned out to be 13%. Further, in the test with C. reinhardtii CC-1928, the inhibition of growth at 1 µg/mL came out at 13% and the “% Inhn. Plus Copper Observed” value turned out to be 95%.

For `O=C(N/N=C/c1ccc(Cl)c(Cl)c1O)c1ccccc1` [Compound 21], in the test with C. reinhardtii, the inhibition of growth at 1 µg/mL came out at 6%. Moreover, in the test with C. reinhardtii CC-1928, the inhibition of growth at 1 µg/mL turned out to be 6% and the “% Inhn. Plus Copper Observed” value came to 94%.

On to `C/C(=N\NC(=O)c1cccc(C)c1)c1cc(Cl)cc(Cl)c1O` [Compound 25, 3-methyl-benzoic acid [1-(3,5-dichloro-2-hydroxyphenyl)-ethylidene]-hydrazide], for which the inhibition of growth at 1 µg/mL in the test with C. reinhardtii and in the test with C. reinhardtii CC-1928 was 33% throughout. Further, in the test on C. reinhardtii CC-1928, the “% Inhn. Plus Copper Observed” value was 95%.

As to `C/C(=N\NC(=O)c1ccc(C)cc1)c1cc(Cl)cc(Cl)c1O` [Compound 26], in the test with C. reinhardtii CC-1928, the inhibition of growth at 1 µg/mL is 5% and the “% Inhn. Plus Copper Observed” value is listed as 94%.

Take `O=C(N/N=C/c1cc(Cl)cc(C(F)(F)F)c1O)c1ccccc1` [Compound 27]: the inhibition of growth at 1 µg/mL in the test with C. reinhardtii and with C. reinhardtii CC-1928 was 30% each time. Further, in the test on C. reinhardtii CC-1928, the “% Inhn. Plus Copper Observed” value stood at 96%.

As for `O=C(N/N=C/c1cc(C(F)(F)F)cc(C(F)(F)F)c1O)c1ccc(Cl)cc1` [Compound 32], the inhibition of growth at 1 µg/mL in the test on C. reinhardtii was determined as 21%. In addition, in the test with C. reinhardtii CC-1928, the inhibition of growth at 1 µg/mL was determined as 21% and the “% Inhn. Plus Copper Observed” value was 97%.

In the case of `O=C(N/N=C/c1c(Cl)ccc(Cl)c1O)c1ccc(Cl)cc1` [Compound 45], the inhibition of growth at 1 µg/mL in the test on C. reinhardtii was found to be 9%. In the test on C. reinhardtii CC-1928, the inhibition of growth at 1 µg/mL is 9% and the “% Inhn. Plus Copper Observed” value was found to be 96%.

With `O=C(N/N=C/c1cccc(Cl)c1O)c1ccc(Cl)cc1` [Compound 52], the inhibition of growth at 1 µg/mL in the test with C. reinhardtii was -4%. In the test with C. reinhardtii CC-1928, the inhibition of growth at 1 µg/mL is -4% and the “% Inhn. Plus Copper Observed” value worked out at 88%.

With `O=C(N/N=C/c1c(C(F)(F)F)ccc(Cl)c1O)c1ccc(Cl)cc1` [Compound 56], the inhibition of growth at 1 µg/mL with C. reinhardtii worked out at 11%. Further, in the test on C. reinhardtii CC-1928, the inhibition of growth at 1 µg/mL turned out to be 11% and the “% Inhn. Plus Copper Observed” value was found to be 97%.

Consider `Cc1ccccc1C(=O)N/N=C/c1cc(Cl)cc(Cl)c1O` [Compound 63], for which the inhibition of growth at 1 µg/mL in the test with C. reinhardtii and in the test with C. reinhardtii CC-1928 was -18% each time. In addition, in the test with C. reinhardtii CC-1928, the “% Inhn. Plus Copper Observed” value came to 93%.

With `CC(=O)[O-].CC(=O)[O-].O=C(N/N=C/c1cc(Cl)cc(Cl)c1O)c1ccccc1.[Cu+2]` [Compound 72], the “Complex % Inhn.” value in the test with C. reinhardtii came to 96%.

For the molecule `CC(=O)[O-].CC(=O)[O-].O=C(N/N=C/c1cc(Cl)cc(Cl)c1O)c1ccccc1.O=C(N/N=C/c1cc(Cl)cc(Cl)c1O)c1ccccc1.[Cu+2]` [Compound 73], in the test with C. reinhardtii, the “Complex % Inhn.” value is 96%.

On to `O=C(N/N=C/c1cc(Cl)cc(Cl)c1O)c1ccccc1.O=C(N/N=C/c1cc(Cl)cc(Cl)c1O)c1ccccc1.O=S(=O)([O-])[O-].[Cu+2]` [Compound 74], for which the “Complex % Inhn.” value with C. reinhardtii is listed as 96%.

For the molecule `O=C(N/N=C/c1cc(Cl)cc(Cl)c1O)c1ccccc1.[Cl-].[Cl-].[Cu+2]` [Compound 75], the “Complex % Inhn.” value in the test on C. reinhardtii is 95%.

As for `O=C(N/N=C/c1cc(Cl)cc(Cl)c1O)c1ccccc1.O=C(N/N=C/c1cc(Cl)cc(Cl)c1O)c1ccccc1.[Cl-].[Cl-].[Cu+2]` [Compound 76], the “Complex % Inhn.” value in the test with C. reinhardtii was 75%.

On to `O=C(N/N=C/c1cc(Cl)cc(Cl)c1O)c1ccccc1.O=C(N/N=C/c1cc(Cl)cc(Cl)c1O)c1ccccc1.[Cl-].[Cl-].[Mn+2]` [Compound 77], for which the “Complex % Inhn.” value with C. reinhardtii is given as −1%.

With `O=C(NN=Cc1cc(Cl)cc(Cl)c1O)c1ccccc1.O=C(NN=Cc1cc(Cl)cc(Cl)c1O)c1ccccc1.[Cl-].[Cl-].[Zn+2]` [Compound 78], the “Complex % Inhn.” value with C. reinhardtii is listed as −5%.

Regarding `[Cl][Cu][Cl]` [CuCl2, Copper chloride, reference compound], the “% Inhn. by copper chloride alone” value in the test on C. reinhardtii CC-1928 is reported as −11.7 ± 6.0%; in the test on C. reinhardtii CC-1928 (listed as Copper chloride), “slight enhancement of growth”.

The values above are taken from patent US8906829B2, “Synergistic algicidal compositions including hydrazone derivatives and copper” (Dow AgroSciences LLC, priority 2010, dated 2014).
